Experimental findings from ChEMBL document CHEMBL4265917, “Antibacterial and antioxidant activities for natural and synthetic dual-active compounds” (Eur J Med Chem, 2018) are described below.

Structures are written as SMILES. Values after ≈ are worked out from the molar mass of the structure shown.

Common to all, as to assay type: functional
For assay [1], the system named is Escherichia coli. The assay can be described thus: Antibacterial activity against Escherichia coli after 16 hrs by broth microdilution method. (Broth dilution looks for growth in wells or tubes with falling amounts of substance.)
The test system of assay [2] is Staphylococcus aureus. The assay can be described thus: Antibacterial activity against Staphylococcus aureus after 16 hrs by broth microdilution method.
For assay [3], the system named is Staphylococcus aureus. The assay can be described thus: Antibacterial activity against methicillin-resistant Staphylococcus aureus after 24 hrs by microbroth dilution method.
Assay [4] can be described thus: Antioxidant activity assessed as DPPH free radical scavenging activity incubated for 30 min by UV-vis spectrophotometric analysis.
The test system of assay [5] is Escherichia coli. The assay can be described thus: Antibacterial activity against Escherichia coli K-12 MG1655 assessed as bacterial growth inhibition after 24 hrs by serial dilutoin method. The note with it: K-12 substr. MG1655, 24 h.
Assay [6] relates to Staphylococcus aureus. The assay can be described thus: Antibacterial activity against Staphylococcus aureus KCTC 1916 after 20 to 36 hrs by disc diffusion method.
The test system of assay [7] is Escherichia coli. The assay can be described thus: Antibacterial activity against Escherichia coli KCTC 1924 after 20 to 36 hrs by disc diffusion method. For orientation: In agar diffusion tests the substance spreads into inoculated agar from a disc or well.
Assay [8] concerns Staphylococcus aureus. The assay can be described thus: Antibacterial activity against Staphylococcus aureus ATCC 29213 assessed as inhibition of bacterial growth at 25 g/L incubated for 24 hrs by serial dilution method relative to cntrol. The note with it: ATCC 29213, 24 h, read-out: GI.
Assay [9] has as its system Staphylococcus aureus. The assay can be described thus: Bactericidal activity against Staphylococcus aureus ATCC 29213 incubated for 24 hrs by serial dilution method.
The subject of assay [10] is Staphylococcus aureus. The assay can be described thus: Antibacterial activity against methicillin-resistant Staphylococcus aureus.
The nature of assay [11]: Antioxidant activity assessed as DPPH free radical scavenging activity. (The DPPH test is a chemical assay of radical scavenging.)
In assay [12] the test system is Staphylococcus aureus. The assay can be described thus: Antibacterial activity against Staphylococcus aureus ATCC 6538 by agar diffusion method.
Assay [13] can be described thus: Antioxidant activity assessed as BTH equivalent of DPPH-induced radical scavenging activity.
The test system of assay [14] is Escherichia coli. The assay can be described thus: Antibacterial activity against Escherichia coli ATCC 10536 by agar diffusion method.
The test system of assay [15] is Staphylococcus aureus. The assay can be described thus: Antibacterial activity against Staphylococcus aureus after 18 hrs by CLSI broth microdilution method.
Assay [16] relates to Escherichia coli. The assay can be described thus: Antibacterial activity against Escherichia coli after 18 hrs by CLSI broth microdilution method.
In assay [17] the test system is Escherichia coli. The assay can be described thus: Antibacterial activity against Escherichia coli by turbidity assay.
The subject of assay [18] is Proteus vulgaris. The assay can be described thus: Antibacterial activity against Proteus vulgaris by turbidity assay.
For assay [19], the system named is Bacillus cereus. The assay can be described thus: Antibacterial activity against Bacillus cereus by turbidity assay.
Assay [20] deals with Staphylococcus aureus. The assay can be described thus: Antibacterial activity against Staphylococcus aureus by turbidity assay.
The subject of assay [21] is Enterococcus faecalis. The assay can be described thus: Antibacterial activity against Enterococcus faecalis.
Assay [22] has as its system Staphylococcus aureus. The assay can be described thus: Antibacterial activity against Staphylococcus aureus.

For `C=CCc1ccc(O)c(OC)c1` [EUGENOL], the MIC in assay [1] and in assay [2] was 2.5 µg/mL (≈ 15.2 µM) in each case.

`COc1cc(/C=C/c2cc(/C=C/c3ccc(OCC(=O)NC45CC6CC(CC(C6)C4)C5)c(OC)c3)[nH]n2)ccc1OCC(=O)NC12CC3CC(CC(C3)C1)C2` came in with a minimum inhibitory concentration (MIC) in [3] of 10 to 20 µg/mL (≈ 13.4 to 26.8 µM).

Take `O=C(/C=C/c1ccc(O)c(O)c1)O[C@H](Cc1ccc(O)c(O)c1)C(=O)O` [ROSMARINIC ACID]: the 50% inhibitory concentration (IC50) in assay [4] amounted to 0.4 µg/mL (≈ 1.11 µM). Moreover, in [5], the MIC is 250 µg/mL (≈ 694 µM).

As for `Oc1ccc2ccccc2c1-c1c[nH]c2ccc(F)cc12`, the MIC in assay [6] turned out to be 7.32 µg/mL (≈ 26.4 µM); in assay [7], 8.71 µg/mL (≈ 31.4 µM). Besides, in assay [4], the EC50 came to 3 µg/mL (≈ 10.8 µM).

As to `COc1cc(N)ccc1O`, in assay [8], the inhibition of growth at 25000 µg/mL was 93%. The molecule also showed an MBC99 in [9] of 10 mM (≈ 1390 µg/mL).

`COc1ccccc1NC(=O)COc1ccc(/C=C/c2cc(/C=C/c3ccc(OCC(=O)Nc4ccccc4OC)c(OC)c3)[nH]n2)cc1OC` displayed an MIC in assay [3] of 10 to 20 µg/mL (≈ 14.5 to 29 µM).

Molecule `COc1cc(/C=C/c2cc(/C=C/c3ccc(OCC(=O)Nc4ccccc4C)c(OC)c3)[nH]n2)ccc1OCC(=O)Nc1ccccc1C` displayed a minimal inhibitory concentration (MIC) in assay [3] of 10 to 20 µg/mL (≈ 15.2 to 30.4 µM).

As to `Cc1ccc(C(C)C)cc1O` [CARVACROL], the MIC in assay [1] was 2.5 µg/mL (≈ 16.6 µM); in [2], 1.25 µg/mL (≈ 8.32 µM).

Turning to `COc1cc(/C=C/c2cc(/C=C/c3ccc(OCC(=O)Nc4ccc(F)cc4)c(OC)c3)[nH]n2)ccc1OCC(=O)Nc1ccc(F)cc1`, the MIC in [3] was 10 to 20 µg/mL (≈ 15 to 30 µM).

In turn, `COc1cc(/C=C/C(=O)CC(=O)/C=C/c2ccc(O)c(OC)c2)ccc1O` [CURCUMIN] had an MIC in [10] of 125 to 250 µg/mL (≈ 339 to 679 µM). Besides, the IC50 in assay [11] came out at 28 µg/mL (≈ 76 µM).

In [3], `COc1cc(/C=C/c2cc(/C=C/c3ccc(OCC(=O)Nc4cc(Cl)cc(Cl)c4)c(OC)c3)[nH]n2)ccc1OCC(=O)Nc1cc(Cl)cc(Cl)c1` showed a minimal inhibitory concentration (MIC) of 10 to 20 µg/mL (≈ 13 to 26 µM).

As for `O=C(CCc1ccc(O)cc1)c1c(O)cc(O)cc1O` [PHLORETIN], the MIC was 100 µg/mL (≈ 365 µM) in [12] and 250 µg/mL (≈ 912 µM) in [14]. Besides, in [13], the Activity came to 1.27 mg.equiv.

`Cc1c(O)cc(CCCCCCCCCC[P+](c2ccccc2)(c2ccccc2)c2ccccc2)c(O)c1C`: the minimal inhibitory concentration (MIC) in assay [15] is 0.6 µg/mL; in assay [16], 0.6 to 19 µg/mL.

`COc1c2cc(C)cc1n1cc(ccc3cn(c4cc(C)cc(c4OC)n4cc(ccc5cn2c2ccccc52)c2ccccc24)c2ccccc32)c2ccccc21`: the MIC in assay [17], in assay [18], in assay [19] and in [20] was 7.81 to 31.2 µg/mL (≈ 10.4 to 41.5 µM) throughout. The IC50 in assay [11] is 28 µg/mL (≈ 37.2 µM).

`O=C(/C=C/c1ccc(O)c(O)c1)O[C@@H]1C[C@](O)(C(=O)O)C[C@@H](O)[C@H]1O` [CHLOROGENIC ACID]: the MIC in assay [21] and in assay [22] was 32 to 128 µg/mL (≈ 90.3 to 361 µM) throughout. In addition, the concentration for a half-maximal effect (EC50) in assay [11] worked out at 13.8 µg/mL (≈ 38.9 µM).

As to `Oc1ccc2cc(Br)ccc2c1-c1c[nH]c2ccccc12`, the results for the MIC in assay [6] and in [7] were 14.8 µg/mL (≈ 43.8 µM) and 5.32 µg/mL (≈ 15.7 µM), respectively. For the same molecule, the EC50 in assay [4] was 3.8 µg/mL (≈ 11.2 µM).

In general, MIC refers to the smallest concentration in the dilution series that meets the test's criterion for growth inhibition. What is called IC50 is the concentration that inhibits the measured activity by half. What is called EC50 is the concentration needed to bring the measured effect to its halfway point.
